Results reported in patent US8957062B2, “Substituted cyclopropyl compounds, compositions containing such compounds and methods of treatment” (Merck Sharp & Dohme Corp., priority 2011, dated 2015).

Target: T1, human GPR119 (Homo sapiens, UniProt Q8TDV5)
T1 sequence (Q8TDV5 1-308 limits assumed): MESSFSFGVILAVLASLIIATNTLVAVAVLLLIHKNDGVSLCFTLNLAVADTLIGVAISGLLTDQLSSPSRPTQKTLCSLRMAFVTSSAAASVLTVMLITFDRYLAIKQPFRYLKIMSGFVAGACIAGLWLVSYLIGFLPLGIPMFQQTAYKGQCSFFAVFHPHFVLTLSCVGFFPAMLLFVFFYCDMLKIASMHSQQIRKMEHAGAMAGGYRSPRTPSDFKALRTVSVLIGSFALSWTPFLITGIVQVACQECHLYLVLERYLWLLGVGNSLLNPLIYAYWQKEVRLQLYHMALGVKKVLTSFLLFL
Assay: Measurement of GPR119 signaling (cAMP assay) in cells stably transfected with human GPR119
Type: cell-based
Conditions: cAMP stimulation; read-out: GPR119 HumC EC50

EC50 | Compound
5.1 nM | CC1(OC(=O)N2CCC([C@H]3C[C@H]3CCOc3ccc(CC(=O)N4CCC[C@@H]4C(F)(F)F)c(F)c3)CC2)CC1 [Example 68]
0.24 nM | CC(C)c1noc(N2CCC([C@H]3C[C@H]3CCOc3cc(F)c(CC(=O)N4CCC4)c(F)c3)CC2)n1 [Example 109]
0.19 nM | CC(C)c1noc(N2CCC([C@H]3C[C@H]3CCOc3cc(F)c(CC(=O)N4CCOCC4)c(F)c3)CC2)n1 [Example 114]
2.7 nM | CCC1(OC(=O)N2CCC([C@H]3C[C@H]3CCOc3ccc(CC(=O)N4CCC4)c(F)c3)CC2)CC1 [Example 74]
3.6 nM | CC1(COC(=O)N2CCC([C@H]3C[C@H]3CCOc3ccc(CC(=O)N4CCC4)c(F)c3)CC2)CC1 [Example 72]
1.5 nM | CC1(OC(=O)N2CCC([C@H]3C[C@H]3CCOc3ccc(CC(=O)N4CCC4)c(Cl)c3)CC2)CC1 [Example 69]

Same assay, conditions: stated in the example text without 'GPR119'; read-out: Human EC50

EC50 | Compound
2.2 nM | CN(C)C(=O)Cc1cc(F)c(OCC[C@@H]2C[C@@H]2C2CCN(C(=O)OC3(C)CC3)CC2)cc1F [Example 62, 1-methylcyclopropyl 4-[(1R,2S)-2-(2-{4-[2-(dimethylamino)-2-oxoethyl]-2,5-difluorophenoxy}ethyl)cyclopropyl]piperidine-1-carboxylate]

Same assay, conditions: stated in the example text; cAMP stimulation, human GPR119; read-out: GPR119 Human EC50

EC50 | Compound
0.8 nM | CC(C)OC(=O)N1CCC([C@H]2C[C@H]2CCOc2cc(F)c(C(=O)C3CC3)c(F)c2)CC1 [Example 51]
0.7 nM | Cc1cc(-n2cnnn2)cnc1OCC[C@@H]1C[C@@H]1C1CCN(C(=O)OC2(C)CC2)CC1 [Example 30, 1-methylcyclopropyl 4-[(1R,2S)-2-(2-{[3-methyl-5-(1H-tetrazol-1 yl)pyridin-2-yl]oxy}ethyl)cyclopropyl]piperidine-1-carboxylate]
6 nM | O=C(c1c(F)cc(OCC[C@@H]2C[C@@H]2C2CCN(c3nc4ncccn4n3)CC2)cc1F)C1CC1 [Example 251]

Same assay, conditions: table column; cAMP stimulation, human GPR119; read-out: GPR119 Human EC50

Compound | EC50
Cc1nc(C#N)cc(OCC[C@@H]2C[C@@H]2C2CCN(c3nnc4ncccn34)CC2)n1 [Example 254] | 25 nM
CC(C)c1noc(N2CCC([C@H]3C[C@H]3CCOc3ccc(CC(=O)N(C)C4(C)CCCC4)c(F)c3)CC2)n1 [Example 165] | 8.1 nM
CS(=O)(=O)c1ccc(OCC[C@@H]2C[C@@H]2C2CCN(c3noc(C4CCCC4)n3)CC2)nc1 [Example 242] | 11.6 nM
CC(C)c1noc(N2CCC([C@H]3C[C@H]3CCOc3ccc(CC(=O)N4Cc5nnc(C(F)(F)F)n5C(C)(C)C4)c(F)c3)CC2)n1 [Example 185] | 8.8 nM
Cc1cc(CC(=O)N2CC(C)(O)C2)cnc1OCC[C@@H]1C[C@@H]1C1CCN(c2nc(C(C)C)no2)CC1 [Example 262] | 12 nM
CS(=O)(=O)c1ccc(OCC[C@@H]2C[C@@H]2C2CCN(C(=O)Cc3cccs3)CC2)nc1 [Example 91] | 36 nM
Cc1cc(CC(=O)N(C)C)cnc1OCC[C@@H]1C[C@@H]1C1CCN(c2nc(C(C)C)no2)CC1 [Example 263] | 14 nM
Cc1nc(C#N)cc(OCC[C@@H]2C[C@@H]2C2CCN(C(=O)CCC(F)(F)F)CC2)n1 [Example 96] | 43 nM
COCCc1noc(N2CCC([C@H]3C[C@H]3CCOc3ccc(S(C)(=O)=O)cn3)CC2)n1 [Example 216] | 26 nM
CCOCc1noc(N2CCC([C@H]3C[C@H]3CCOc3ccc(S(C)(=O)=O)cn3)CC2)n1 [Example 218] | 14 nM
O=C(OCc1ccccc1)N1CCC([C@H]2C[C@H]2CCOc2ccc(-n3cnnn3)cc2)CC1 [Example 12] | 11.8 nM
CC(C)CC(=O)N1CCC([C@H]2C[C@H]2CCOc2ccc(-n3cnnn3)cc2)CC1 [Example 79] | 7.7 nM

Second part, the compound after the results:

EC50 | Compound
7.7 nM | CC(C)c1noc(N2CCC([C@H]3C[C@H]3CCOc3ccc(CC(=O)N(C)CC4CCC(=O)N4C)c(F)c3)CC2)n1 (some centres unmarked) [Example 169]
6.4 nM | COCc1noc(N2CCC([C@H]3C[C@H]3CCOc3ccc(-c4nnn(C)n4)cc3)CC2)n1 [Example 224]
6 nM | CS(=O)(=O)c1ccc(OCC[C@@H]2C[C@@H]2C2CCN(c3nc(C4CC4)no3)CC2)nc1 [Example 210]
5.7 nM | CC(C)c1noc(N2CCC([C@H]3C[C@H]3CCOc3ccc(CC(=O)N4CCn5c(nnc5C5CC5)C4)c(F)c3)CC2)n1 [Example 176]
5.4 nM | CC(C)(C)CC(=O)N1CCC([C@H]2C[C@H]2CCOc2ccc(S(C)(=O)=O)c(F)c2)CC1 [Example 95]
5.1 nM | COCc1noc(N2CCC([C@H]3C[C@H]3CCOc3ccc(CC(=O)N4CCC[C@@H]4C(F)(F)F)c(F)c3)CC2)n1 [Example 203]
3.5 nM | CC(C)c1noc(N2CCC([C@H]3C[C@H]3CCOc3ccc(CC(=O)N4CCc5nc(C(F)(F)F)sc5C4)c(F)c3)CC2)n1 [Example 184]
3.4 nM | COCc1noc(N2CCC([C@H]3C[C@H]3CCOc3ccc(S(C)(=O)=O)cc3)CC2)n1 [Example 221]
2.5 nM | CCS(=O)(=O)c1ccc(OCC[C@@H]2C[C@@H]2C2CCN(C(=O)OC3(C)CC3)CC2)cc1F [Example 42]
2.1 nM | CC(C)c1noc(N2CCC([C@H]3C[C@H]3CCOc3ccc(CC(=O)NC4CC4)c(F)c3)CC2)n1 [Example 150]
1.8 nM | CC(C)c1noc(N2CCC([C@H]3C[C@H]3CCOc3ccc(CC(=O)N4CCC4)cc3)CC2)n1 [Example 128]
1.8 nM | CCS(=O)(=O)c1ccc(OCC[C@@H]2C[C@@H]2C2CCN(c3nc(C(C)C)no3)CC2)cc1F [Example 28]
1.8 nM | CCN(CC)C(=O)Cc1ccc(OCC[C@@H]2C[C@@H]2C2CCN(c3nc(C(C)C)no3)CC2)cc1F [Example 144]
1.6 nM | COCc1noc(N2CCC([C@H]3C[C@H]3CCOc3ccc(-n4cnnn4)cn3)CC2)n1 [Example 230]
1.5 nM | CC(C)c1noc(N2CCC([C@H]3C[C@H]3CCOc3ccc(CC(=O)N4CC(F)C4)cc3)CC2)n1 [Example 129]
1.4 nM | CC(C)c1noc(N2CCC([C@H]3C[C@H]3CCOc3ccc(Cc4nncs4)c(F)c3)CC2)n1 [Example 257]
1.2 nM | Cc1nc(C#N)cc(OCC[C@@H]2C[C@@H]2C2CCN(C(=O)OC(C)C)CC2)n1 [Example 46]
1.2 nM | COCc1noc(N2CCC([C@H]3C[C@H]3CCOc3cc(F)c(CC(=O)N4CCC4)c(F)c3)CC2)n1 [Example 205]
1.2 nM | COCc1noc(N2CCC([C@H]3C[C@H]3CCOc3ccc(CC(=O)N4CC(F)(F)C4)c(F)c3)CC2)n1 [Example 200]
1.1 nM | CC(C)c1noc(N2CCC([C@H]3C[C@H]3CCOc3ccc(CC(=O)N4C[C@@H](F)[C@H](F)C4)cc3)CC2)n1 [Example 127]
1.1 nM | CCOC(=O)N1CCC([C@H]2C[C@H]2CCOc2cc(F)c(C(=O)C3CC3)c(F)c2)CC1 [Example 55]
0.6 nM | CC1(COC(=O)N2CCC([C@H]3C[C@H]3CCOc3ccc(S(C)(=O)=O)cn3)CC2)CCC1 [Example 26]
